Results as given in ChEMBL document CHEMBL1201862, “PubChem BioAssay data set” (2004).
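Each compound was tested at five concentrations against cells in 96-well plates for 48 hours. At the GI50, growth is halved.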 The source made the active and inactive calls. Rule as the data show it: active = GI50 up to about 1.1 µM and inactive = higher.

Key:
Assay in all cases: growth of human tumour cells (NCI), 48 h
A498 = tested on: A498
A549 = tested on: A549
DU-145 = tested on: DU-145
HOP-92 = tested on: HOP-92
IGROV-1 = tested on: IGROV-1
MOLT-4 = tested on: MOLT-4
Malme-3M = tested on: Malme-3M
NCI-H23 = tested on: NCI-H23
OVCAR-3 = tested on: OVCAR-3
OVCAR-4 = tested on: OVCAR-4
RPMI-8226 = tested on: RPMI-8226
SF-539 = tested on: SF-539
SK-MEL-28 = tested on: SK-MEL-28
SK-MEL-5 = tested on: SK-MEL-5
SN12C = tested on: SN12C
SNB-75 = tested on: SNB-75
SR = tested on: SR
T47D = tested on: T47D
EKVX = tested on: EKVX

Measured: GI50

C/C(=N\NC(=S)NC(C)(C)C)c1ccccn1
active: A498 0.248 µM | A549 0.248 µM | HOP-92 0.342 µM | IGROV-1 < 0.01 µM | MOLT-4 < 0.01 µM | NCI-H23 < 0.0172 µM | OVCAR-3 < 0.01 µM | RPMI-8226 < 0.01 µM | SK-MEL-5 0.153 µM | SN12C 0.295 µM | SR < 0.01 µM | T47D < 0.01 µM
inactive: DU-145 1.69 µM | Malme-3M 2.83 µM | OVCAR-4 4.1 µM | SF-539 1.88 µM | SK-MEL-28 3.66 µM | SNB-75 11.7 µM

CC(=O)NC1C(OCc2ccccc2)OC(CO)C(O)C1OC(C)C(=O)NC(C(=O)NC(CCC(=O)Nc1ccc2c(c1)CN1C(=O)c3ccccc3C1=N2)C(N)=O)C(C)C (centres undefined)
inactive: A498 > 100 µM | A549 > 100 µM | DU-145 > 100 µM | EKVX > 100 µM | HOP-92 > 100 µM | IGROV-1 > 100 µM | MOLT-4 > 100 µM | Malme-3M > 100 µM | NCI-H23 > 100 µM | OVCAR-3 > 100 µM | OVCAR-4 > 100 µM | RPMI-8226 > 100 µM | SF-539 > 100 µM | SK-MEL-28 > 100 µM | SK-MEL-5 > 100 µM | SN12C > 100 µM | SNB-75 > 100 µM | SR > 100 µM | T47D > 100 µM

COc1ccc(P2(=S)SP(=S)(c3ccc(Cl)cc3)S2)cc1 (centres undefined)
inactive: A498 > 100 µM | A549 > 100 µM | DU-145 > 100 µM | EKVX > 100 µM | HOP-92 > 100 µM | IGROV-1 > 100 µM | MOLT-4 > 100 µM | Malme-3M > 100 µM | NCI-H23 > 100 µM | OVCAR-3 > 100 µM | OVCAR-4 > 100 µM | RPMI-8226 > 100 µM | SF-539 > 100 µM | SK-MEL-28 > 100 µM | SK-MEL-5 > 100 µM | SN12C > 100 µM | SNB-75 > 100 µM | SR > 100 µM | T47D > 100 µM

C=C(C(=O)OC)N1C(=O)CC(C)C1=O (centres undefined)
inactive: A498 20.7 µM | A549 20.9 µM | DU-145 15.8 µM | EKVX 14.7 µM | HOP-92 1.95 µM | IGROV-1 15.9 µM | MOLT-4 3.33 µM | Malme-3M 2.45 µM | NCI-H23 17.9 µM | OVCAR-3 8.05 µM | OVCAR-4 18.2 µM | RPMI-8226 4.91 µM | SF-539 19 µM | SK-MEL-28 9.55 µM | SK-MEL-5 16.9 µM | SN12C 16.1 µM | SNB-75 17 µM | SR 2.59 µM | T47D 11.1 µM

Fc1ccc2nc3n(c2c1)C(c1c(F)cccc1F)SC3 (centres undefined)
inactive: A498 65.5 µM | A549 58.3 µM | DU-145 > 100 µM | HOP-92 46 µM | IGROV-1 > 100 µM | MOLT-4 21.3 µM | Malme-3M > 100 µM | NCI-H23 55 µM | OVCAR-3 54.8 µM | OVCAR-4 64.3 µM | RPMI-8226 60.4 µM | SF-539 > 100 µM | SK-MEL-28 > 100 µM | SK-MEL-5 26.7 µM | SN12C 77.4 µM | SNB-75 31.6 µM | SR 18.4 µM | T47D 40.6 µM

CCOC(=O)NC(NCC(O)c1ccccc1)(C(F)(F)F)C(F)(F)F (centres undefined)
inactive: A498 > 100 µM | A549 > 100 µM | DU-145 > 100 µM | EKVX > 100 µM | HOP-92 > 100 µM | IGROV-1 > 100 µM | MOLT-4 > 100 µM | Malme-3M > 100 µM | NCI-H23 > 100 µM | OVCAR-3 > 100 µM | RPMI-8226 > 100 µM | SF-539 > 100 µM | SK-MEL-28 > 100 µM | SK-MEL-5 > 100 µM | SN12C > 100 µM | SNB-75 > 100 µM | SR > 100 µM | T47D > 100 µM

CC1=C(Br)C(=O)C(C)=C(Br)C1=O.Cc1c(O)c(Br)c(C)c(O)c1Br
active: MOLT-4 0.783 µM | SR 0.925 µM
inactive: A498 15.3 µM | A549 18.3 µM | DU-145 2.31 µM | EKVX 1.85 µM | HOP-92 1.78 µM | IGROV-1 7.83 µM | Malme-3M 2.1 µM | NCI-H23 2.21 µM | OVCAR-3 1.83 µM | OVCAR-4 1.79 µM | RPMI-8226 2.27 µM | SF-539 4.78 µM | SK-MEL-28 1.91 µM | SK-MEL-5 4.22 µM | SN12C 1.8 µM | SNB-75 14.2 µM | T47D 2.52 µM

CCOC(=O)c1ccc(Nc2cnc3ccc(C(F)(F)F)cc3n2)cc1
inactive: A498 16.6 µM | A549 14.5 µM | DU-145 18.2 µM | EKVX 24.6 µM | HOP-92 6.18 µM | IGROV-1 15 µM | MOLT-4 3.63 µM | Malme-3M 21.4 µM | NCI-H23 15 µM | OVCAR-3 19.5 µM | OVCAR-4 11.6 µM | RPMI-8226 27.2 µM | SF-539 28.1 µM | SK-MEL-28 15.8 µM | SK-MEL-5 15.5 µM | SN12C 13.9 µM | SNB-75 17.9 µM | SR 10.3 µM | T47D 18.7 µM

NC1C/C(=N\O)c2c(I)sc(I)c21 (centres undefined)
inactive: A498 27 µM | A549 16 µM | DU-145 17.4 µM | EKVX 19 µM | HOP-92 17.1 µM | IGROV-1 15.7 µM | MOLT-4 3.05 µM | Malme-3M 15.7 µM | NCI-H23 14.7 µM | OVCAR-3 15.8 µM | OVCAR-4 22 µM | RPMI-8226 6.7 µM | SF-539 6.08 µM | SK-MEL-28 17.5 µM | SK-MEL-5 14.8 µM | SN12C 20.7 µM | SNB-75 18.9 µM | SR 4.8 µM | T47D 23.2 µM

CN(CC(=O)O)Cc1c(O)c(Cl)cc(Cl)c1Cl
inactive: A498 46.1 µM | A549 53.7 µM | DU-145 34.4 µM | EKVX 24.2 µM | HOP-92 23.4 µM | IGROV-1 48.1 µM | Malme-3M 27.4 µM | NCI-H23 95.3 µM | OVCAR-3 4.07 µM | OVCAR-4 33.6 µM | RPMI-8226 37.4 µM | SF-539 22.4 µM | SK-MEL-28 24.5 µM | SK-MEL-5 24.7 µM | SN12C 47 µM | SNB-75 92.5 µM | SR 5.55 µM | T47D 54.1 µM

Cc1cn([C@@H]2C[C@H]2CO)c(=O)[nH]c1=O
inactive: A498 > 100 µM | A549 > 100 µM | DU-145 > 100 µM | EKVX > 100 µM | HOP-92 > 100 µM | IGROV-1 > 100 µM | MOLT-4 > 100 µM | Malme-3M > 100 µM | NCI-H23 > 100 µM | OVCAR-4 > 100 µM | RPMI-8226 > 100 µM | SF-539 57 µM | SK-MEL-28 > 100 µM | SK-MEL-5 > 100 µM | SN12C > 100 µM | SNB-75 > 100 µM | SR > 100 µM | T47D > 100 µM
